Earlier results as cited in US10449129B2, “Encapsulates of salicylic acid and polysalicylic acid derivatives” (Biocogent, LLC, priority 2015, dated 2019).

Conditions: room temperature

limit of solubility in water: approximately 0.2%
Structure (SMILES): O=C(O)c1ccccc1O [SA, salicylic acid]
